Test results published in patent US11098288B2, “D-type amino acid dehydrogenase” (Kureha Corporation, priority 2017, dated 2021).

Columns and labels:
[1] = system: Six-mutation enzyme (Asp94Ser, Met154Leu, Val158Gly, Thr173Ile, Arg183Met, His229Asn; SEQ ID NO: 8); test: D-amino acid synthesis activity (amination of 2-oxo acid), six-mutation enzyme; format: biochemical, Thermosyntropha lipolytica; conditions: 5 mM 2-oxoacid, 200 mM ammonium chloride, glycine buffer pH 9.5, 50° C.; for D-amino acid synthesis activity (specific activity), Six-mutation enzyme, NADH: NADH 0.1 mM; for D-amino acid synthesis activity (specific activity), Six-mutation enzyme, NADPH: NADPH 0.1 mM
Procedure: Using this as a template, the gene of the enzyme was amplified by PCR using “PrimeSTAR Max DNA Polymerase” available from Takara Bio Inc. PCR was performed according to the manufacturer's instructions. The PCR reaction solution was prepared so as to contain 0.3 μM of each of the following primers and 50 ng of the above-described template DNA.
According to the manufacturer's protocol, the purified amplification product was incorporated into a pET100 vector (I available from Invitrogen) of a plasmid for protein expression to construct a six-mutation D-type amino acid dehydrogenase/pET100. The expression vector was constructed so as to incorporate a six-mutation D-type amino acid dehydrogenase gene derived from T. lipolytica downstream of the T7 promoter and […], and upstream of the T7 terminator.
(§1) The activity of the enzyme was measured by determining a decrease in absorbance at wavelength of 340 nm of NADPH or NADH […] by the catalytic reaction of the enzyme and determining the enzymatic activity by the determined decrease in absorbance as an indicator. […] The absorbance was measured by an ultraviolet-visible spectrophotometer UV-1800 (available from SHIMADZU). […]

[2] = system: Five-mutation enzyme (five-mutation D-type amino acid dehydrogenase, SEQ ID NO: 14); test: D-amino acid synthesis activity (amination of 2-oxo acid), five-mutation enzyme; format: biochemical, Thermosyntropha lipolytica; conditions: 5 mM 2-oxoacid, 200 mM ammonium chloride, glycine buffer pH 9.5, 50° C.; for D-amino acid synthesis activity (specific activity), Five-mutation enzyme, NADH: NADH 0.1 mM; for D-amino acid synthesis activity (specific activity), Five-mutation enzyme, NADPH: NADPH 0.1 mM
Procedure: The PCR reaction solution was prepared so as to contain 0.3 μM of each of the following primers and 50 ng of the above-described template DNA.
After PCR, 2 μL of DpnI was added to the reaction solution and treated at 37° C. for 1 hour, and E. coli DH5α was transformed using the solution after treatment. Transformed cells were coated on an LB agar plate containing antibiotic ampicillin (final concentration 100 mg/L) and cultured at 37° C. for 16 hours. The generated colonies were harvested and cultured in LB liquid medium containing ampicillin overnight. The strains were collected from the culture solution by centrifugation, and five-mutation D-type amino acid dehydrogenase/pET100 was collected according to the manufacturer's protocol using AccuPrep Plasmid Mini Extraction Kit (BIONEER).
as §1

[3] = system: Wild type D-type amino acid dehydrogenase derived from T. lipolytica; test: D-amino acid synthesis activity (amination of 2-oxo acid), wild type enzyme; format: biochemical, Thermosyntropha lipolytica; conditions: 5 mM 2-oxoacid, 200 mM ammonium chloride, glycine buffer pH 9.5, 50° C.; for D-amino acid synthesis activity (specific activity), Wild type, NADH: NADH 0.1 mM; for D-amino acid synthesis activity (specific activity), Wild type, NADPH: NADPH 0.1 mM
Procedure: as §1

[4] = molecular target: D-type amino acid dehydrogenase derived from T. lipolytica (Thermosyntropha lipolytica, UniProt A0A1M5M5H3); test: Coenzyme dependence by activity-staining after disc gel electrophoresis; format: biochemical; conditions: 10 mM meso-diaminopimelic acid, 1.25 mM coenzyme, pH 8.0, 50° C., 30 minutes
Procedure: The coenzyme dependence of the enzyme was evaluated by an activity-staining method due to an enzymatic catalytic reaction. More specifically, an appropriate amount of enzyme solution was subjected to disc gel electrophoresis. […] A reaction formula is indicated below. In the following reaction formula, the D-type amino acid dehydrogenase is referred to as “meso-DAPDH”.

[5] = substrate: NC(=O)c1ccc[n+]([C@@H]2O[C@H](COP(=O)([O-])OP(=O)(O)OC[C@H]3O[C@@H](n4cnc5c(N)ncnc54)[C@H](O)[C@@H]3O)[C@@H](O)[C@H]2O)c1; test: purified protein, by the assay type; format: biochemical, Thermosyntropha lipolytica; conditions: other: meso-diaminopimelic acid as substrate, 50° C., values for meso-diaminopimelic acid determined using NADP^+ as the coenzyme
Procedure: The absorbance was measured by an ultraviolet-visible spectrophotometer UV-1800 (available from SHIMADZU). The specific activity of the enzyme was calculated from the concentration of the enzyme used and enzyme dilution rate using the obtained absorbance change and the following equation.
A turnover number (kcat) as a reaction rate parameter, a Michaelis constant (Km) value, and catalytic efficiency (kcat/Km) were determined with Igor Pro ver. 3.14 (available from WaveMetrics) based on Michaelis-Menten equation after the initial velocities were plotted against different substrates and coenzyme concentrations.

[6] = substrate: N[C@H](CCC[C@H](N)C(=O)O)C(=O)O; test: purified protein, by the assay type; conditions: other: meso-diaminopimelic acid as substrate, 50° C., values for meso-diaminopimelic acid determined using NADP^+ as the coenzyme

CC(C)C(=O)C(=O)O [2-oxo-3-methylbutanoic acid/D-valine, 2-oxo-3-methylbutanoic acid]
D-amino acid synthesis activity (specific activity), Six-mutation enzyme, NADH [1]: 0.18 ± 0.00089 µmol/min/mg
D-amino acid synthesis activity (specific activity), Six-mutation enzyme, NADPH [1]: 0.058 ± 0.0027 µmol/min/mg
D-amino acid synthesis activity (specific activity), Five-mutation enzyme, NADH [2]: 0.18 ± 0.00078 µmol/min/mg
D-amino acid synthesis activity (specific activity), Five-mutation enzyme, NADPH [2]: 0.11 ± 0.0034 µmol/min/mg
D-amino acid synthesis activity (specific activity), Wild type, NADH [3]: 0.43 ± 0.0026 µmol/min/mg
D-amino acid synthesis activity (specific activity), Wild type, NADPH [3]: 0.33 ± 0.0094 µmol/min/mg

O=C(O)C(=O)Cc1ccccc1 [2-oxo-3-phenylpropanoic acid]
D-amino acid synthesis activity (specific activity), Six-mutation enzyme, NADH [1]: No Activity
D-amino acid synthesis activity (specific activity), Six-mutation enzyme, NADPH [1]: 0.036 ± 0.0037 µmol/min/mg
D-amino acid synthesis activity (specific activity), Five-mutation enzyme, NADH [2]: No Activity
D-amino acid synthesis activity (specific activity), Five-mutation enzyme, NADPH [2]: 0.068 ± 0.0039 µmol/min/mg
D-amino acid synthesis activity (specific activity), Wild type, NADH [3]: 0.020 ± 0.0053 µmol/min/mg
D-amino acid synthesis activity (specific activity), Wild type, NADPH [3]: No Activity

CSCCC(=O)C(=O)O [2-oxo-4-(methylthio) butanoic acid]
D-amino acid synthesis activity (specific activity), Six-mutation enzyme, NADH [1]: No Activity
D-amino acid synthesis activity (specific activity), Six-mutation enzyme, NADPH [1]: 0.089 ± 0.0038 µmol/min/mg
D-amino acid synthesis activity (specific activity), Five-mutation enzyme, NADH [2]: No Activity
D-amino acid synthesis activity (specific activity), Five-mutation enzyme, NADPH [2]: 0.18 ± 0.0022 µmol/min/mg
D-amino acid synthesis activity (specific activity), Wild type, NADH [3]: 0.0033 ± 0.0016 µmol/min/mg
D-amino acid synthesis activity (specific activity), Wild type, NADPH [3]: 0.059 ± 0.0065 µmol/min/mg

CC(C)CC(=O)C(=O)O [2-oxo-4-methylpentanoic acid/D-leucine, 2-oxo-4-methylpentanoic acid]
D-amino acid synthesis activity (specific activity), Six-mutation enzyme, NADH [1]: No Activity
D-amino acid synthesis activity (specific activity), Six-mutation enzyme, NADPH [1]: 0.11 ± 0.0013 µmol/min/mg
D-amino acid synthesis activity (specific activity), Five-mutation enzyme, NADH [2]: 0.11 ± 0.0027 µmol/min/mg
D-amino acid synthesis activity (specific activity), Five-mutation enzyme, NADPH [2]: 0.20 ± 0.0071 µmol/min/mg
D-amino acid synthesis activity (specific activity), Wild type, NADH [3]: 0.27 ± 0.0064 µmol/min/mg
D-amino acid synthesis activity (specific activity), Wild type, NADPH [3]: 0.061 ± 0.00082 µmol/min/mg

O=C(O)CC(=O)C(=O)O [2-oxobutanedioic acid/D-aspartic acid, 2-oxobutanedioic acid]
D-amino acid synthesis activity (specific activity), Six-mutation enzyme, NADH [1]: 0.12 ± 0.010 µmol/min/mg
D-amino acid synthesis activity (specific activity), Six-mutation enzyme, NADPH [1]: 0.32 ± 0.0082 µmol/min/mg
D-amino acid synthesis activity (specific activity), Five-mutation enzyme, NADH [2]: 0.14 ± 0.014 µmol/min/mg
D-amino acid synthesis activity (specific activity), Five-mutation enzyme, NADPH [2]: 0.60 ± 0.035 µmol/min/mg
D-amino acid synthesis activity (specific activity), Wild type, NADH [3]: 0.43 ± 0.015 µmol/min/mg
D-amino acid synthesis activity (specific activity), Wild type, NADPH [3]: 5.7 ± 0.60 µmol/min/mg

CCC(=O)C(=O)O [2-oxobutanoic acid/D-2-aminobutyric acid, 2-oxobutanoic acid]
D-amino acid synthesis activity (specific activity), Six-mutation enzyme, NADH [1]: 0.032 ± 0.0023 µmol/min/mg
D-amino acid synthesis activity (specific activity), Six-mutation enzyme, NADPH [1]: 0.077 ± 0.0041 µmol/min/mg
D-amino acid synthesis activity (specific activity), Five-mutation enzyme, NADH [2]: 0.044 ± 0.0049 µmol/min/mg
D-amino acid synthesis activity (specific activity), Five-mutation enzyme, NADPH [2]: 0.13 ± 0.0020 µmol/min/mg
D-amino acid synthesis activity (specific activity), Wild type, NADH [3]: 0.13 ± 0.0041 µmol/min/mg
D-amino acid synthesis activity (specific activity), Wild type, NADPH [3]: 2.3 ± 0.030 µmol/min/mg

O=C(O)CCC(=O)C(=O)O [2-oxoglutaric acid/D-glutamic acid, 2-oxoglutaric acid]
D-amino acid synthesis activity (specific activity), Six-mutation enzyme, NADH [1]: No Activity
D-amino acid synthesis activity (specific activity), Six-mutation enzyme, NADPH [1]: 0.067 ± 0.0046 µmol/min/mg
D-amino acid synthesis activity (specific activity), Five-mutation enzyme, NADH [2]: No Activity
D-amino acid synthesis activity (specific activity), Five-mutation enzyme, NADPH [2]: 0.039 ± 0.0073 µmol/min/mg
D-amino acid synthesis activity (specific activity), Wild type, NADH [3]: No Activity
D-amino acid synthesis activity (specific activity), Wild type, NADPH [3]: 0.27 ± 0.010 µmol/min/mg

CCCCCCC(=O)C(=O)O [2-oxooctanoic acid]
D-amino acid synthesis activity (specific activity), Six-mutation enzyme, NADH [1]: 0.0098 ± 0.0047 µmol/min/mg
D-amino acid synthesis activity (specific activity), Six-mutation enzyme, NADPH [1]: 0.35 ± 0.0093 µmol/min/mg
D-amino acid synthesis activity (specific activity), Five-mutation enzyme, NADH [2]: 0.017 ± 0.0027 µmol/min/mg
D-amino acid synthesis activity (specific activity), Five-mutation enzyme, NADPH [2]: 0.47 ± 0.012 µmol/min/mg
D-amino acid synthesis activity (specific activity), Wild type, NADH [3]: No Activity
D-amino acid synthesis activity (specific activity), Wild type, NADPH [3]: 0.101 ± 0.010 µmol/min/mg

CC(=O)C(=O)O [2-oxopropanoic acid/D-alanine, 2-oxopropanoic acid]
D-amino acid synthesis activity (specific activity), Six-mutation enzyme, NADH [1]: 0.0053 ± 0.0036 µmol/min/mg
D-amino acid synthesis activity (specific activity), Six-mutation enzyme, NADPH [1]: 0.044 ± 0.0034 µmol/min/mg
D-amino acid synthesis activity (specific activity), Five-mutation enzyme, NADH [2]: 0.0077 ± 0.0015 µmol/min/mg
D-amino acid synthesis activity (specific activity), Five-mutation enzyme, NADPH [2]: 0.071 ± 0.00074 µmol/min/mg
D-amino acid synthesis activity (specific activity), Wild type, NADH [3]: 0.49 ± 0.016 µmol/min/mg
D-amino acid synthesis activity (specific activity), Wild type, NADPH [3]: 5.3 ± 0.038 µmol/min/mg

NC(=O)c1ccc[n+]([C@@H]2O[C@H](COP(=O)([O-])OP(=O)(O)OC[C@H]3O[C@@H](n4cnc5c(N)ncnc54)[C@H](O)[C@@H]3O)[C@@H](O)[C@H]2O)c1 [NAD^+]
coenzyme utilization (activity-staining) [4]: utilized

NADP^+
coenzyme utilization (activity-staining) [4]: utilized

B1: D-type amino acid dehydrogenase derived from T. lipolytica (Thermosyntropha lipolytica DSM 11003) (protein)
chain: MGEKIRVAIVGYGNIGRYALDAIKAAPDMELAGVVRRSSSLGDKPAELADVPVVGSIKELTGVKVALLCTPTRSVPEYAREILALGINTVDSYDIHGQLADLRLELDKVAKEHNAVAVISAGWDPGTDSMVRCMFEFMAPKGITYTNFGPGMSMGHSVAVKAVKGVKNALSMTIPLGTGVHRRMVYVELEPGADFAQVEKAVKTDPYFVKDETHVIQVEDVDALIDMGHGVLMERKGVSGGTHNQLLSFSMRINNPALTAQIMVASARASVKQKPGAYTMIQIPIIDYMYGDPDEIIRQLV
Km [5]: 14.8 mM
kcat [5]: 77.5 s⁻¹
kcat/Km [5]: 5220 M⁻¹ s⁻¹
Km [6]: 5.68 mM
kcat [6]: 73.7 s⁻¹
kcat/Km [6]: 13000 M⁻¹ s⁻¹
